Test results taken from ChEMBL document CHEMBL5233269, “Anticancer potential of spirocompounds in medicinal chemistry: A pentennial expedition” (Eur J Med Chem, 2021).
Blank lines part the entries; values can stand above or below the molecule they belong to.

Tests used:
Sarcoma-180 = assay: Antitumor activity against mouse Sarcoma-180 xenografted in mouse model assessed tumor growth inhibition relative to control; assay type: functional; design: scale not given: the % may be the effect or the level left
[1] = target: T1, Amine oxidase [flavin-containing] A (Rattus norvegicus, UniProt P21396); assay: Inhibition of rat brain MAO-A relative to control; assay type: tissue-based
T1 sequence (P21396 whole entry): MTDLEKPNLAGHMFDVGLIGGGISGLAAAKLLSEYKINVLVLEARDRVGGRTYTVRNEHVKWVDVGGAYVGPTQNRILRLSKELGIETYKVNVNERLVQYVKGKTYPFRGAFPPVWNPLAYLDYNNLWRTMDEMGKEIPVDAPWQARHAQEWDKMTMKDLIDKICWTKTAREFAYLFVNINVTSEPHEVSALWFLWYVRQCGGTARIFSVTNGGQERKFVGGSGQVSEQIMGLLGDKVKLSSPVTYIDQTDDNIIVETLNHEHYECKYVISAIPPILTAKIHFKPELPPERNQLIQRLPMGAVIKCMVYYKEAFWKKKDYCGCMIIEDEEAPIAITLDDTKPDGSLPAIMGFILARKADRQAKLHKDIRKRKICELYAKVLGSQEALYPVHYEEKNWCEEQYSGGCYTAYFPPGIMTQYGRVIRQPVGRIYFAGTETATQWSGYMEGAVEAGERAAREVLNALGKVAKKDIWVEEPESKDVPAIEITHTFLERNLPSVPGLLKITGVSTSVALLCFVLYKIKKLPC

Ehrlich = assay: Antitumor activity against mouse Ehrlich ascites carcinoma xenografted in mouse model assessed tumor growth inhibition relative to control; assay type: functional; design: scale not given: the % may be the effect or the level left
MCF7 [2] = assay: Antiproliferative activity against human MCF7 cells assessed as inhibition of cell viability; assay type: functional, cell-based
K562 = assay: Antiproliferative activity against human K562 cells assessed as inhibition of cell viability; assay type: functional, cell-based
HeLa [3] = assay: Cytotoxicity against human HeLa cells incubated for 48 hrs by MTT assay; assay type: functional, cell-based
HeLa [4] = assay: Cytotoxicity against human HeLa cells incubated for 24 hrs by MTT assay; assay type: functional, cell-based
MCF7 [5] = assay: Inhibition of cell proliferation in human MCF7 cells; assay type: functional, cell-based
[6] = Inhibition of cell proliferation in human MCF-10A cells at 50 uM by MTT colorimetric cell viability assay relative to control; assay type: toxicity, cell-based
HepG2 [7] = assay: Anticancer activity against human HepG2 cells at 200 microg/ml measured after 48 hrs relative to control; assay type: functional
4T1 = assay: Anticancer activity against mouse 4T1 cells at 200 microg/ml measured after 48 hrs relative to control; assay type: functional
MCF7 [8] = assay: Anticancer activity against human MCF7 cells at 10 uM by MTT assay relative to control; assay type: functional
MCF7 [9] = assay: Anticancer activity against human MCF7 cells measured after 48 hrs by MTT assay; assay type: functional, cell-based; details: MCF7, 48 h
Ishikawa = assay: Anticancer activity against human Ishikawa cells measured after 48 hrs by MTT assay; assay type: functional, cell-based
MDA-MB-231 = assay: Anticancer activity against human MDA-MB-231 cells measured after 48 hrs by MTT assay; assay type: functional, cell-based; details: MDA-MB-231, 48 h
LNCaP = assay: Anticancer activity against human LNCaP cells measured after 48 hrs by MTT assay; assay type: functional, cell-based
DU-145 = assay: Anticancer activity against human DU-145 cells measured after 48 hrs by MTT assay; assay type: functional, cell-based; details: DU-145, 48 h
L02 = assay: Antiproliferative activity against human L02 cells by MTT assay; assay type: functional, cell-based
HepG2 [10] = assay: Antiproliferative activity against human HepG2 cells by MTT assay; assay type: functional, cell-based
HCT-116 = assay: Cytotoxicity against human HCT-116 cells incubated overnight by MTT assay; assay type: functional, cell-based
HepG2 [11] = assay: Cytotoxicity against human HepG2 cells incubated overnight by MTT assay; assay type: functional, cell-based
A549 [12] = assay: Cytotoxicity against human A549 cells assessed as inhibition of tumor cell proliferation incubated for 72 hrs by MTT assay; assay type: functional, cell-based; details: A549, 72 h
MGC-803 = assay: Cytotoxicity against human MGC-803 cells assessed as inhibition of tumor cell proliferation incubated for 72 hrs by MTT assay; assay type: functional, cell-based; details: MGC-803, 72 h
SMMC-7721 = assay: Cytotoxicity against human SMMC-7721 cells assessed as inhibition of tumor cell proliferation incubated for 72 hrs by MTT assay; assay type: functional, cell-based; details: SMMC-7721, 72 h
HT-29 = assay: Antiproliferative activity against human HT-29 cells measured after 48 hrs by MTT assay; assay type: functional, cell-based; details: HT-29, 48 h
MCF7 [13] = assay: Antiproliferative activity against human MCF7 cells measured after 48 hrs by MTT assay; assay type: functional, cell-based; details: MCF7, 48 h
HepG2 [14] = assay: Antiproliferative activity against human HepG2 cells measured after 48 hrs by MTT assay; assay type: functional, cell-based; details: HepG2, 48 h
HL-60 = assay: Antiproliferative activity against human HL-60 cells measured after 48 hrs by MTT assay; assay type: functional, cell-based; details: HL-60, 48 h
A549 [15] = assay: Antiproliferative activity against human A549 cells measured after 48 hrs by MTT assay; assay type: functional, cell-based; details: A549, 48 h
[16] = Antiproliferative activity against human […] cells measured after 48 hrs by MTT assay; assay type: functional, cell-based
SW480 = assay: Antiproliferative activity against human SW480 cells measured after 48 hrs by MTT assay; assay type: functional, cell-based; details: SW480, 48 h
HeLa [17] = assay: Antiproliferative activity against human HeLa cells measured after 48 hrs by MTT assay; assay type: functional, cell-based
HeLa [18] = assay: Anticancer activity against human HeLa cells assessed as inhibition of cell growth by MTT assay; assay type: functional, cell-based
A549 [19] = assay: Anticancer activity against human A549 cells assessed as inhibition of cell growth by MTT assay; assay type: functional, cell-based
MCF7 [20] = assay: Anticancer activity against human MCF7 cells assessed as inhibition of cell growth by MTT assay; assay type: functional, cell-based

inhibition (INH) [1]: 15%
Structure (SMILES): CCn1c(SCC(=O)Nc2cccc(C(F)(F)F)c2)nc2c(c1=O)C1(CCCCC1)Cc1ccccc1-2
Activity (Sarcoma-180): 42% | Activity (Ehrlich): 70%

IC50 (MCF7 [2]): 18.6 µM | IC50 (K562): 13.4 µM
Structure (SMILES): COc1ccc(/C=C2\CCCC3(C2=O)[C@@H]2CCCN2[C@@]2(C(=O)Nc4ccccc42)[C@H]3c2ccc(OC)cc2)cc1 (stereo partly drawn)

EC50 (MCF7 [5]): 4.01 µM
Structure (SMILES): COc1cc(OC)c(C2NCCC23C(=O)Nc2ccccc23)cc1OC (stereo not drawn)
inhibition at 50 µM [6]: 0.8%

IC50 (MCF7 [9]): 5.11 µM | IC50 (MDA-MB-231): 17.6 µM | IC50 (LNCaP): 5.34 µM | IC50 (DU-145): 1.68 µM
Structure (SMILES): O=C1NC2(C3=C(C(=O)C4C=CC=CC4C3=O)c3cc(Cl)ccc32)c2ccccc21 (stereo not drawn)
IC50 (Ishikawa): 1.39 µM

IC50 (HepG2 [10]): 2.86 µM
Structure (SMILES): O=C1C(=O)C2C(N=C3N=NNN3C23C(=O)Nc2ccc(F)cc23)c2ccccc21 (stereo not drawn)
IC50 (L02): 58.9 µM

inhibition (INH) [1]: 50%
Structure (SMILES): CCn1c(SCc2ccc(Cl)cc2)nc2c(c1=O)C1(CCCCC1)Cc1ccccc1-2
Activity (Sarcoma-180): 40% | Activity (Ehrlich): 56%

IC50 (HT-29): 4.63 µM | IC50 (MCF7 [13]): 3.24 µM | IC50 (HepG2 [14]): 5.37 µM | IC50 (HL-60): 5.17 µM | IC50 (A549 [15]): 3.43 µM | IC50 (SW480): 2.33 µM | IC50 (HeLa [17]): 5.23 µM
Structure (SMILES): CC(C)CCC[C@@H](C)[C@@H]1CCC2C3C[C@@]4(N=C5C=CC(Cl)=CN5/C4=N\Cc4ccccc4)C4C[C@@H](Cl)CC[C@]4(C)C3CC[C@@]21C (stereo partly drawn)
IC50 [16]: 4.67 µM

EC50 (MCF7 [5]): 6 µM
Structure (SMILES): O=C1Nc2ccccc2C12CCNC2c1cccc(F)c1 (stereo not drawn)
inhibition at 50 µM [6]: 4.48%

IC50 (HepG2 [10]): 7.9 µM
Structure (SMILES): O=C1C(=O)C2C(N=C3N=NNN3C23C(=O)Nc2c(C(F)(F)F)cccc23)c2ccccc21 (stereo not drawn)
IC50 (L02): 49.9 µM

IC50 (HeLa [18]): 9.14 µM | IC50 (A549 [19]): 17.8 µM | IC50 (MCF7 [20]): 6.47 µM
Structure (SMILES): O=C1C2=C(c3ccccc31)N(c1ccc(N3CCOCC3)c(F)c1)C1=C(C(=O)c3ccccc31)C21C(=O)Nc2ccccc21

Second part, the molecule before the results:

Structure (SMILES): Cc1cn(CN2C(=O)C3(c4ccccc42)C(C(=O)c2ccc(F)cc2)C3C(=O)c2ccc(Cl)cc2)nn1 (stereo not drawn)
IC50 (HeLa [3]): 6.3 µM | IC50 (HeLa [4]): 11.2 µM

Structure (SMILES): COc1ccc(C(=O)[C@H]2[C@]3(C(=O)Nc4ccc(Cl)cc43)[C@@H]3c4ccccc4CCN3[C@@]23C(=O)Nc2ccc(Cl)cc23)cc1
inhibition at 200 µg/mL (HepG2 [7]): 70.1% | inhibition at 200 µg/mL (4T1): 23.2%

Structure (SMILES): COC(=O)c1[nH]nc2c1C1(C(=O)N(C(C)=O)c3ccccc31)C(C#N)=C(N)O2 (stereo not drawn)
inhibition at 10 µM (MCF7 [8]): 23.2%

Structure (SMILES): Cc1ccc(C(=O)[C@H]2[C@]3(C(=O)Nc4ccc(F)cc43)[C@@H]3c4ccccc4CCN3[C@@]23C(=O)Nc2ccc(Cl)cc23)cc1
inhibition at 200 µg/mL (HepG2 [7]): 73.5% | inhibition at 200 µg/mL (4T1): 33.3%

Structure (SMILES): O=C(/C=C/c1ccc(Br)cc1)[C@H]1[C@H](c2ccc(Br)cc2)C2CSCN2[C@]12C(=O)Nc1ccccc12 (stereo partly drawn)
IC50 (HCT-116): 3 µM | IC50 (HepG2 [11]): 0.8 µM

Structure (SMILES): C[C@]12CC[C@H](O)CC1=CCC1C2CC[C@@]2(C)C1CC[C@@H]2C1=CC2(C(=O)N(Cc3ccc(Cl)c(Cl)c3)c3ccccc32)C(C#N)=C(N)N1 (stereo partly drawn)
IC50 (A549 [12]): > 128 µM | IC50 (MGC-803): > 128 µM | IC50 (SMMC-7721): > 128 µM

Structure (SMILES): O=C(c1ccc(F)cc1)C1C(C(=O)c2ccc(F)cc2)C12C(=O)Nc1ccccc12 (stereo not drawn)
IC50 (HeLa [3]): 6.25 µM | IC50 (HeLa [4]): 11.2 µM

Structure (SMILES): Cc1cn(CN2C(=O)C3(c4ccccc42)C(C(=O)c2ccccc2)C3C(=O)c2ccc(Cl)cc2)nn1 (stereo not drawn)
IC50 (HeLa [3]): 4.5 µM | IC50 (HeLa [4]): 9.3 µM
